Assay results published in US20050164924A1, “Method and composition for treating skin wounds with epidermal growth factor” (priority 2002, published 2005).
“And” between values parts separate entries of the source, which are not always exact repeats. Equal values may be shown once.

Columns and labels:
[1] = test system: diabetic foot ulcer; assay: Randomized double-blind controlled trial of hEGF in diabetic foot ulcer healing; type: in vivo, human; conditions: for 100% Healed Time, mean survival time: Kaplan Meier; for healing rate by the end of 12 weeks: topical daily
Procedure: A randomized double-blind controlled trial was conducted to study the efficacy of human epidermal growth factor hEGF) in promoting diabetic foot ulcer healing with 88 patients. Predetermined criteria were used for patient selection, they were; ulcer grade 1-2, ulcer located below the ankle, adequate perfusion as indicated by an ankle brachial-index of ≧0.7. Patients were excluded if: sugar control was very poor (HbAlc≧12%), or had severe grade ulcers (≧3). Initial assessment and standard wound care and debridement was given as in an ordinary diabetic foot clinic. The patients were reviewed two weeks later. In the second consultation, patients whose ulcer healed more than 25% with conventional foot ulcer care were excluded. Informed consent was obtained from the remaining patients and randomization was done by drawing envelopes, although the patients were blind to the concentrations of hEGF during the experiments. The final candidates were randomly assigned into three groups: • 1. Group 1 were treated with Acetovegin® 5% cream alone, which has the following compositions as indicated in the package of the cream: 1 g of cream contains 2 mg (corresponding to dry mass) of deproteinized hemoderivative of calf blood, and 0.2 mg of benzalkonium chloride. There was no particular reason in choosing Acetovegin® 5% cream as the control other than this cream was available at the clinic where the experiments were conducted. • 2. Group 2 patients were treated with Acetovegin® 5% cream (with composition as stated above) plus 0.02% (g/g) hEGF. • 3. Group 3 patients were treated with Acetovegin® 5% cream (with composition as stated above) plus 0.04% (g/g) hEGF. All patients were followed up on a biweekly bass for wound care and debridement and trimming of keratosis. Antibiotic would be given if it was infected as indicated by purulent discharge or by positive bacterial culture. Photos of the wound's size were being taken for computer measurement and comparing with a reference area having a known size. Local application of study cream was applied and covered with sterile gauze. Patients were instructed to have daily normal saline dressing and local application of cream in the government out-patient-clinic or community nurse would be asked to have home visit for those with ambulatory problem. Wound parameters, such as exudates sign of infection granulation tissue and eschar were documented in each visit and complete healing was defined as full epithelialization of the wound with absence of discharge. Analysis was based on intention to treat and Kaplan Meier survival analysis was employed to compare the healing rate between different groups. One way ANOVA was used for clinical parameters analysis. If more than one wound was present in one patient the total areas of the ulcers was taken together and treated as one single wound. Of the 30 patients that suffered from unhealed ulcers they were randomly assigned into 3 groups as stated above: Group-1 (9/30), the control, was treated with Acetovegin® 5% cream alone; Group-2 (9/30) was treated with Acetovegin® 5% cream plus 0.02% (g/g) hEGF; Group-3, (14/32) Acetovegin® 5% cream plus 0.04% (g/g) hEGF. The end point of a treatment was defined as complete closure of the wound, whereas failure to heal was defined as incomplete healing after 12 weeks of treatment. The experiment in Example 1 was repeated using Acetovegin® 5% cream plus 0.03% (g/g) hEGF. 8 patients, named Group-4, were treated.

[2] = test system: diabetes ulcers; assay: Individuals suffering from prolonged diabetes ulcers treated with 0.04% hEGF composition; type: in vivo, human; conditions: 0.04% (g/g) hEGF
Procedure: Three patients suffering from prolonged diabetes ulcers were treated with the composition of this invention containing 0.04% (g/g) hEGF. The following results were observed, with all of the patients were healed after as short as four weeks treatment: […]

[3] = test system: right facial non-healing ulcer; assay: Individual suffering from prolonged unhealed surgical wound; type: in vivo, human; conditions: Patient D
Text: Patient D was admitted for investigation of right facial non-healing ulcer after extraction of right mandibular molars and excision of facial fistula eleven months ago. […] There was sloughing of the right mandibular alveolus and the wound was tender. […] However, “definitively negative finding for malignancy nor basal cell carcinoma, quite normal looking oral epithelial mucosa” was reported by a pathologist. […] Patient was reviewed after two weeks of hEGF (0.04% (g/g)) local application. The composition is the same as that used in the above Group-3 patients. The right facial wound was healing, base of the wound looked fleshy with no discharge. The wound area decreased in size by about 30%.

[4] = test system: bedsore; assay: Individual suffering from bedsore; type: in vivo, human; conditions: 0.04% (g/g) EGF daily with normal saline dressing, after three-month treatment
Procedure: Patient B was bedridden at aged home for several years. […] They were referred to medical because the wound got worse with central grangrene after a two-month treatment.
They were then treated with Hibitane dressing for two weeks then normal saline dressing with the composition of this invention containing 0.04% (g/g) EGF daily.

[5] = test system: burns; assay: Treating burns with EGF; type: in vivo; conditions: 0.001% (g) of EGF
[6] = test system: corneal and burn wounds; conditions: EGF 10 μg/ml; cited from earlier work
[7] = test system: venous stasis ulcers; conditions: EGF 10 μg/ml; cited from earlier work
[8] = Patient A, after 2 weeks treatment
[9] = Patient A, after 3 weeks treatment
[10] = Patient B, after 3 weeks treatment
[11] = Patient B, after 5 weeks treatment
[12] = Patient B, after 9 weeks treatment
[13] = Patient C, after 4 weeks treatment
[14] = Patient C, after 6 weeks treatment

## human epidermal growth factor [hEGF]
[1]; 0.02% (g/g) EGF
  total healing outcome: may fail to achieve totally healing in some cases
[1]; 0.02% (g/g) or 0.04% (g/g) EGF
  reduction of the time required to achieve 50% healing: 2-4 weeks
[1]; 0.03% (g/g) EGF
  results compared with 0.04% (g/g) EGF: almost indistinguishable
[1]; 0.04% (g/g) EGF
  total healing outcome: all of the patients were totally healed after 12 wee
[1]; Group-2, 0.02% (g/g) hEGF
  50% Healed Time, mean survival time: 5.71±1.02 weeks and 5.71 weeks
  50% Healed Time, median survival time: 6.00 weeks
  100% Healed Time, mean survival time: 9.43±1.38 weeks and 9.43 weeks
[1]; Group-2, 0.02% (g/g) hEGF, limited to 12 weeks
  100% Healed Time, median survival time: 12.00 weeks
[1]; Group-2: Acetovegin 5% cream plus 0.02% (g/g) hEGF
  healing rate by the end of 12 weeks: 55%
[1]; Group-3, 0.04% (g/g) hEGF
  50% Healed Time, mean survival time: 4.50±0.82 weeks and 4.50 weeks
  50% Healed Time, median survival time: 4.00 weeks
  100% Healed Time, median survival time: 6.00 weeks
  100% Healed Time, mean survival time: 6.67 weeks
[1]; Group-3: Acetovegin 5% cream plus 0.04% (g/g) hEGF
  healing rate by the end of 12 weeks: 100%
[1]; Group-4, 0.03% (g/g) hEGF
  100% healing time, median survival time: 6 weeks
[1]; Group-4, 0.03% (g/g) hEGF, 2 weeks
  Cumulative Survival (unhealed fraction): 0.8750
[1]; Group-4, 0.03% (g/g) hEGF, 4 weeks
  Cumulative Survival (unhealed fraction): 0.6250
[1]; Group-4, 0.03% (g/g) hEGF, 6 weeks
  Cumulative Survival (unhealed fraction): 0.5000
[1]; Group-4, 0.03% (g/g) hEGF, 8 weeks
  Cumulative Survival (unhealed fraction): 0.3750
[1]; Group-4, 0.03% (g/g) hEGF, 10 weeks
  Cumulative Survival (unhealed fraction): 0.2500
[1]; Group-4, 0.03% (g/g) hEGF, 12 weeks
  Cumulative Survival (unhealed fraction): 0.1250
[1]; Group-4, Acetovegin 5% cream plus 0.03% (g/g) hEGF
  100% healing time, mean survival time (limited to 12): 7 weeks
[2]; [8]
  Healing Rate: 36.25%
  Ulcer Area: 1.02 cm^2
[2]; [9]
  Healing Rate: 100%
  Ulcer Area: 0 cm^2
[2]; [10]
  Healing Rate: 43.18%
  Ulcer Area: 3.79 cm^2
[2]; [11]
  Healing Rate: 75.71%
  Ulcer Area: 1.62 cm^2
[2]; [12]
  Healing Rate: 97.60%
  Ulcer Area: 0.16 cm^2
[2]; [13]
  Healing Rate: 89.34%
  Ulcer Area: 1.41 cm^2
[2]; [14]
  Healing Rate: 100%
  Ulcer Area: 0 cm^2
[3]; 0.04% (g/g) hEGF local application, after two weeks
  decrease of wound area in size: about 30%
[3]; 0.04% hEGF applied locally, after 5 weeks
  reduction of wound in size: approximately 50%
[4]
  wound outcome: healed and completely closed
[5]
  effect on wound healing of burns: effective in accelerating wound healing
[6]
  healing of corneal and burn wounds: promote healing
[7]
  epithelization in wounds of patients with venous stasis ulcers: failed to promote epithelization
